Experimental data from patent US20260234124A1, “Substituted Pyrazolyl-Pyridinyl Compounds as Ligand Directed Degraders of IRAK3” (Celgene Corporation, priority 2022, published 2026).

Tests used:
IRAK3 = biological target: T1, IRAK3 (Homo sapiens, UniProt Q9Y616); test: IRAK endogenous HTRF degradation assay (Total-IRAK3 HTRF kit); type: cell-based; set-up: IRAK Endogenous HTRF Degradation Assay; endogenous in cells; conditions: endogenous IRAK3, overnight incubation; % Dmax = 100 − Ymin
T1 sequence (Q9Y616 1-596): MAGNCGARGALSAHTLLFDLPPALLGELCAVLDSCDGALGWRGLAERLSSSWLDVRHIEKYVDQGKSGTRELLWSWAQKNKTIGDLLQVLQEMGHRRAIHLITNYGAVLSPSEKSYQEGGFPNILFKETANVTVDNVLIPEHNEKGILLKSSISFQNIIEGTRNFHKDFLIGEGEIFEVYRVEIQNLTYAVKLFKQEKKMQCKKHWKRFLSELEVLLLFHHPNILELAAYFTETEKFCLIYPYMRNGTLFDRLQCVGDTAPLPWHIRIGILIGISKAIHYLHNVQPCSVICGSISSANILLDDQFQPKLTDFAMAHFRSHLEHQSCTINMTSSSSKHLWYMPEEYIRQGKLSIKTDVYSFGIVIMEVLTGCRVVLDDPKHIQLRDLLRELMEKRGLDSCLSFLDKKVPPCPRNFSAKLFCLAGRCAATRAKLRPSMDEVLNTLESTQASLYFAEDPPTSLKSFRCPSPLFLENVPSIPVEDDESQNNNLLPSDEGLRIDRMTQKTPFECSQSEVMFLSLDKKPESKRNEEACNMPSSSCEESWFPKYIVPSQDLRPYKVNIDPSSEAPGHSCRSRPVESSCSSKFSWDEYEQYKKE
Protocol: Example B2. IRAK Endogenous HTRF Degradation Assay
Cells (~50k) were plated in Cisbio 96-well low volume white plates (Cisbio: cat #66PL96005). Compounds were dissolved in DMSO and a 3-fold serial dilution was performed using a TECAN D300E. Cells were incubated with the compound overnight. Total-IRAK3 HTRF kit from Cisbio was used for degradation analysis (Cisbio: 63ADK101PEH). Cryptate and D2 antibodies were diluted in Detection buffer as per manufacturers recommendation. Then 2 μL of each solution was added to 16 μL lysate. Buffer control (lysis buffer detection buffer), Cryptate control (lysis buffer+cryptate antibody+detection buffer), and Negative control (lysis buffer+cryptate antibody+D2 antibody) were made as per manufacturers recommendation. Post incubation with antibodies the HTRF signal was measured using a Perkin Elmer Envision reader and the HTRF signal was calculated using formula: (Emission at 665 nm/Emission at 615 nm)*10,000. All HTRF values were normalized to the average value of DMSO. The average value of the DMSO control wells were set to equal 100% of the relative IRAK3 protein levels. Normalized luminescence values were plotted on a graph as a function of compound concentration. Compound concentration was plotted on the x-axis and the corresponding normalized IRAK3 protein levels on the y-axis. The EC50 value (the half-maximum effective concentration) of a compound for the degradation of the IRAK3 was calculated using a four-parameter logistic model (sigmoidal dose-response model) (FIT=(A+{(B−A)/1+[(C/x)D]})) where C is the inflection point (EC50), D is the […], and A and B are the low and high limits of the fit, respectively). The Ymin was calculated by determining the lowest percentage of target protein remaining following compound treatment. Dmax was calculated from Ymin (% Dmax=100−Ymin).
Using these assays, IC50, Dmax, EC50, and DC50 values of the following compounds were determined. Dmax is defined as the maximum percent degradation achieved and DC50 is the concentration at which 50% degradation is achieved.

IRAK3-ePL = biological target: T2, IRAK3-ePL (Homo sapiens, UniProt Q9Y616); test: IRAK3-ePL overexpressing degradation assay; type: cell-based; conditions: IRAK3-ePL Lenti-X 293T CRBN/GSPT1 G575N cells, overnight incubation, top dose 10 μM
T2 construct: expressed in transfected cells; host or cells: 293T CRBN OE/GSPT1 G575N KI cells, lentiviral transduction, puromycin selection
Protocol: Example B1. IRAK3-ePL Overexpressing Degradation Assay
Stable cell lines were generated by the following protocol. 3×10^5 Lenti-X 293T cells (Clonetech) were plated in 0.8 mL of media in a 12-well plate and incubated overnight at 37° C./5% CO2. Packaging plasmid (0.4 μg, pMD), envelope plasmid (0.4 μg, pSP), and lentiviral transfer IRAK3-ePL plasmid (0.8 μg, IRAK3 sequence NM_007199.3) were mixed in 0.1 mL of Opti-MEM and incubated for 5 min. Simultaneously, 2.4 μL of Lipofectamine 2000 (Invitrogen) was added to 0.1 mL of Opti-MEM (Gibco) and incubated for 5 min. The plasmid DNA and lipofectamine were combined and the mixture was allowed to incubate for 20 min. DNA:Lipofectamine Opti-MEM mixtures were then added to previously plated cells dropwise and the cells were incubated for ~16 h at 37° C./5% CO2. Following incubation, the media was removed and 1.2 mL of fresh media was added per well. Lenti-X 293T cells were incubated for ~30 h at 37° C./5% CO2. […] Following incubation, media was removed from the Lenti-X 293T wells and passed through a […]. Part of the viral supernatant was used to transduce cells and the rest was stored at −80° C. Viruses were then added individually (0.5 mL virus) to each well of the 293T^CRBN OE/GSPT1 G575N KI cells, followed by addition of polybrene (10 mg/mL Millipore) to each well at a final concentration of 5.0 μg/mL. Cells were incubated for ~24 h at 37° C./5% CO2. After aspirating media off plates, cells were washed with DPBS, trypsinized and plated in a 10 cm dish in 15 mL of media and 1 μg/mL puromycin. Following incubation of cells for ~72 h at 37° C./5% CO2, media was aspirated off plates, and cells were washed with DPBS and trypsinized. The cells were plated in a 15 cm dish in 40 mL of media with 1.0 μg/mL Puromycin (Gibco) and incubated for ~72 h at 37° C./5% CO2. Following incubation, media was removed and cells were washed with DPBS and trypsinized. The majority of cells were resuspended in Invitrogen freezing media and stored away (~6-8×10^6 cells/vial).
IRAK3-ePL cellular dose response curve degradation assays were performed by the following protocol. Compounds to be tested were dispensed into a white 384-well tissue-culture treated plate using an acoustic liquid handler. Dilutions were prepared based on a 25 μL assay volume in duplicate 10 point 3-fold serial dilutions starting with a 10 μM dose. Negative control wells were included, which only contain 0.2% DMSO to calculate 100% signal. Positive control wells containing 30 μM Ataluren (luciferase inhibitor) were included to calculate the background signal level. All wells were backfilled to a final DMSO concentration of 0.2% to ensure DMSO uniformity across wells. IRAK3-ePL expressing cells (IRAK3-ePL Lenti-X 293T^CRBN/GSPT1 G575N) were washed, trypsinized, counted, and resuspended in fresh DMEM (Gibco) to give a cell concentration of 200,000 cells/mL. 25 μL of cells (5,000 cells/well) were dispensed into the wells of the 384-well plate prespotted with compounds in the previous step and incubated overnight at 37° C./5% CO2. Following incubation, the 384-well plate was taken out of the incubator and left at room temperature for 30 min. InCELL hunter reagent was prepared according to manufacturer's instructions (EA reagent, lysis buffer, and substrate reagent in a 1:1:4 ratio, Cat #96-0002, DiscoverX), which was added to the 384-well plate 25 μL per well. Following the incubation of the plate for 1 h at room temperature, the luminescence signal was read using a ViewLux plate reader. Data was processed and analyzed in ActivityBase software. In short, the average luminescence values of the positive control wells were subtracted from the rest of the wells for background correction, and all luminescence values were normalized to the DMSO control wells. The average value of the DMSO control wells was set to equal 100% of the relative IRAK3-ePL protein levels. […]

A Dmax (IRAK3) of 34%, a Dmax (IRAK3-ePL; HEK-293T, maximum percentage loss of target protein) of 23% and a DC50 (IRAK3-ePL; read-out: IRAK3 ePL degradation EC50) greater than 10 µM were found for `Cc1ncsc1-c1ccc(CNC(=O)[C@@H]2C[C@@H](O)CN2C(=O)[C@@H](NC(=O)COCCOCCOCCOCCOCCN2CCC(n3cc(-c4cnc(N)c(O[C@H](C)c5c(Cl)ccc(F)c5Cl)c4)cn3)CC2)C(C)(C)C)cc1` [Compound 5, (2S,4R)-1-((S)-20-(4-(4-(6-amino-5-((R)-1-(2,6-dichloro-3-fluorophenyl)ethoxy)pyridin-3-yl)-1H-pyrazol-1-yl)piperidin-1-yl)-2-(tert-butyl)-4-oxo-6,9,12,15,18-pentaoxa-3-azaicosanoyl)-4-hydroxy-N-(4-(4-methylthiazol-5-yl)benzyl)pyrrolidine-2-carboxamide] in this work.
